In test [1] the target is T1, Alpha-1A adrenergic receptor (Homo sapiens, UniProt P35348).
T1 sequence (P35348 whole entry): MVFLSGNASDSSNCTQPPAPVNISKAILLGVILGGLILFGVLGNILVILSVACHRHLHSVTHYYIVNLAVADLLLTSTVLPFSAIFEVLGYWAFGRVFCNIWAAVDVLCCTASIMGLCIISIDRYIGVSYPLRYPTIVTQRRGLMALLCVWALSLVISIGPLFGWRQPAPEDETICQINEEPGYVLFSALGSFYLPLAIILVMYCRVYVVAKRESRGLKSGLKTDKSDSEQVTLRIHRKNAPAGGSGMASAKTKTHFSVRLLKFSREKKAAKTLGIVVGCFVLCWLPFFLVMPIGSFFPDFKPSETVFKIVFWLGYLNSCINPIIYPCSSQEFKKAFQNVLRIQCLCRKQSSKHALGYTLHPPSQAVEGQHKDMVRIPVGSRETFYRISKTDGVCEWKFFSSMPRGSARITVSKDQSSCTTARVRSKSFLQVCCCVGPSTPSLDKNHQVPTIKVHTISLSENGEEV
Format: functional, cell-based.

In test [2] the target is T2, Alpha-2A adrenergic receptor (Homo sapiens, UniProt P08913).
T2 sequence (P08913 whole entry): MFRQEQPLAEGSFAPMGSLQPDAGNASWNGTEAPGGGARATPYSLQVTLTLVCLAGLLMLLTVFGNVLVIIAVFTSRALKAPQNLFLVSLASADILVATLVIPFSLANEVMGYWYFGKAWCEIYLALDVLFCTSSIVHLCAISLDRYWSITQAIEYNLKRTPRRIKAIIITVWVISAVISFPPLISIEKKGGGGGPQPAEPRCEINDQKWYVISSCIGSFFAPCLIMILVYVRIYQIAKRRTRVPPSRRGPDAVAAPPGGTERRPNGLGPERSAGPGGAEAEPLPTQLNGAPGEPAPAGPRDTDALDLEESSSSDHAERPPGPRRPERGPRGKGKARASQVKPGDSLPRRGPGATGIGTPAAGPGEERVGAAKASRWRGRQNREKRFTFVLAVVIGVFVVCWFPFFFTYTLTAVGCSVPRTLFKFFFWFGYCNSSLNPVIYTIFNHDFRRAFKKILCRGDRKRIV

Test [3] deals with T3, Muscarinic acetylcholine receptor M1 (Homo sapiens, UniProt P11229).
T3 sequence (P11229 whole entry): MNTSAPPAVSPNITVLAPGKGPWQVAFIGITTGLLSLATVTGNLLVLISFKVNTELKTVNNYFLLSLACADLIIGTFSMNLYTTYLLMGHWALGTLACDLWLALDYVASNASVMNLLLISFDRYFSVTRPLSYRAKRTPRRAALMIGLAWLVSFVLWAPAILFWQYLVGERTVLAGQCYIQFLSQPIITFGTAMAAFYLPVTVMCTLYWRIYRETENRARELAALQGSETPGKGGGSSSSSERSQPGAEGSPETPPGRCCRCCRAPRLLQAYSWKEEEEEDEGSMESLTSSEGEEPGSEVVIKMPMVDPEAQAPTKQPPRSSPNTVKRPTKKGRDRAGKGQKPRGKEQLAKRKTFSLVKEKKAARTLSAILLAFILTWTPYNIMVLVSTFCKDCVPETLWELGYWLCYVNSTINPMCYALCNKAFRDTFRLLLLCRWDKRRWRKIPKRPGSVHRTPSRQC
Format: functional, cell-based.

For test [4], the target named is T4, Muscarinic acetylcholine receptor M2 (Homo sapiens, UniProt P08172).
T4 sequence (P08172 whole entry): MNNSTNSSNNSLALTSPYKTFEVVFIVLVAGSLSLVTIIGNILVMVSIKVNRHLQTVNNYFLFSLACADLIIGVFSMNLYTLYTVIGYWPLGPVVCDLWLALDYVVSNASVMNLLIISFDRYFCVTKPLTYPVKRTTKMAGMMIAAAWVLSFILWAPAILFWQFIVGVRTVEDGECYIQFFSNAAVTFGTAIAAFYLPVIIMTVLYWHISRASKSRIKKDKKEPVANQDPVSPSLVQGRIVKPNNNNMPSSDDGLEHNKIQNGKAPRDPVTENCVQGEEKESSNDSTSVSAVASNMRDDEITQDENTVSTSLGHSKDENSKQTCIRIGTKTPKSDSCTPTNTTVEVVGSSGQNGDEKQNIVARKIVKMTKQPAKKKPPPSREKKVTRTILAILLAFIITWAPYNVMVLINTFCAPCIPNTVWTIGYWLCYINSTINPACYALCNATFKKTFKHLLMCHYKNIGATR

In another test the target is D(3) dopamine receptor (Homo sapiens, UniProt P35462).
Sequence of D(3) dopamine receptor (P35462 whole entry): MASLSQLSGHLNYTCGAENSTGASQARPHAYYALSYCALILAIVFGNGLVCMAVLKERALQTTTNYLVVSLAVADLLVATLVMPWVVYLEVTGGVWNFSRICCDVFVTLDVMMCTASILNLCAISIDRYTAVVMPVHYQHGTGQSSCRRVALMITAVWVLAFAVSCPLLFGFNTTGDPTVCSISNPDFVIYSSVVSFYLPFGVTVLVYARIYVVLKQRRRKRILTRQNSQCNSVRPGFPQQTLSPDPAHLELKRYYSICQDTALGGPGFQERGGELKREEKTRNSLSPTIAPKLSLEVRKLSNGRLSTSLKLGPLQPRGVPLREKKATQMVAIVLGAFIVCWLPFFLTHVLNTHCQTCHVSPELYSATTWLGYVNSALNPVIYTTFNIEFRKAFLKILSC
For the next test, the target named is Prothrombin (Homo sapiens, UniProt P00734). The format is functional.
The target in test [5] is 3',5'-cyclic-AMP phosphodiesterase 4A (Homo sapiens, UniProt P27815). The format is functional.
Sequence of 3',5'-cyclic-AMP phosphodiesterase 4A (P27815 whole entry): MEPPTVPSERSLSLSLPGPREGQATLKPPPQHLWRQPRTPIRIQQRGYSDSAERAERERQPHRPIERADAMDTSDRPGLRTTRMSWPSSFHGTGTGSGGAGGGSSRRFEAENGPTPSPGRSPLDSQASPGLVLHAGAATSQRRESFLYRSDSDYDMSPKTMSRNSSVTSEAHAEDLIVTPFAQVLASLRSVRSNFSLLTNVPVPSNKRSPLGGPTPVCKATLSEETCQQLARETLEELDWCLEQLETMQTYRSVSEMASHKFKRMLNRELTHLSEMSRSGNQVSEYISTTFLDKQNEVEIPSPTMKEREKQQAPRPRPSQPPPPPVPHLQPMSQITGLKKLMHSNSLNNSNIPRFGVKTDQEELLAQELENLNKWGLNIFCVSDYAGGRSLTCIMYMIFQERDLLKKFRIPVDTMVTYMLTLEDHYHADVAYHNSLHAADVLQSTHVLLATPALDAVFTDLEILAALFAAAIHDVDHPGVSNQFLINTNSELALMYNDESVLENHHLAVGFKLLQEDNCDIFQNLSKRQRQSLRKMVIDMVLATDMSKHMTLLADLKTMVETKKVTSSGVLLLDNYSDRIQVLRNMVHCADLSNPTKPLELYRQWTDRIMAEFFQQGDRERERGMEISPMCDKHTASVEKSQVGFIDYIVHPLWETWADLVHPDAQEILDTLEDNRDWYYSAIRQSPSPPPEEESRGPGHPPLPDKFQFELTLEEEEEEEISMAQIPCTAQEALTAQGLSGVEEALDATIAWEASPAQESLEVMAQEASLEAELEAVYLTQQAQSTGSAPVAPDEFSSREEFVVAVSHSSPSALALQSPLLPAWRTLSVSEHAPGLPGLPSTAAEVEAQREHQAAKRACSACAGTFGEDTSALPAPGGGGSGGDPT
Test [6] concerns the target Sodium-dependent dopamine transporter (Homo sapiens, UniProt Q01959).
Another test concerns the target T5, Thromboxane A2 receptor (Homo sapiens, UniProt P21731).
T5 sequence (P21731 whole entry): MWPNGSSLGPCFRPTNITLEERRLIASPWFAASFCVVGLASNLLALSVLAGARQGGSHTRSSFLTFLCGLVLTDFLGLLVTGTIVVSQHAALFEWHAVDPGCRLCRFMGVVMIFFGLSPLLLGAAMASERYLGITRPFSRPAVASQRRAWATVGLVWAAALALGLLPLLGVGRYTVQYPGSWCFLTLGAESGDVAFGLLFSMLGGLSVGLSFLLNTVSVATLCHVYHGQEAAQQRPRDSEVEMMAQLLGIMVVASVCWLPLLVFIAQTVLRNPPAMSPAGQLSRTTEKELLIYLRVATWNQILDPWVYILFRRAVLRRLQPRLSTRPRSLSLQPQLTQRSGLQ
The format is functional, cell-based.

In test [7] the target is Voltage-gated inwardly rectifying potassium channel KCNH2 (Homo sapiens, UniProt Q12809). Format: functional. Conditions: read-out: AC50.
Sequence of Voltage-gated inwardly rectifying potassium channel KCNH2 (Q12809 whole entry): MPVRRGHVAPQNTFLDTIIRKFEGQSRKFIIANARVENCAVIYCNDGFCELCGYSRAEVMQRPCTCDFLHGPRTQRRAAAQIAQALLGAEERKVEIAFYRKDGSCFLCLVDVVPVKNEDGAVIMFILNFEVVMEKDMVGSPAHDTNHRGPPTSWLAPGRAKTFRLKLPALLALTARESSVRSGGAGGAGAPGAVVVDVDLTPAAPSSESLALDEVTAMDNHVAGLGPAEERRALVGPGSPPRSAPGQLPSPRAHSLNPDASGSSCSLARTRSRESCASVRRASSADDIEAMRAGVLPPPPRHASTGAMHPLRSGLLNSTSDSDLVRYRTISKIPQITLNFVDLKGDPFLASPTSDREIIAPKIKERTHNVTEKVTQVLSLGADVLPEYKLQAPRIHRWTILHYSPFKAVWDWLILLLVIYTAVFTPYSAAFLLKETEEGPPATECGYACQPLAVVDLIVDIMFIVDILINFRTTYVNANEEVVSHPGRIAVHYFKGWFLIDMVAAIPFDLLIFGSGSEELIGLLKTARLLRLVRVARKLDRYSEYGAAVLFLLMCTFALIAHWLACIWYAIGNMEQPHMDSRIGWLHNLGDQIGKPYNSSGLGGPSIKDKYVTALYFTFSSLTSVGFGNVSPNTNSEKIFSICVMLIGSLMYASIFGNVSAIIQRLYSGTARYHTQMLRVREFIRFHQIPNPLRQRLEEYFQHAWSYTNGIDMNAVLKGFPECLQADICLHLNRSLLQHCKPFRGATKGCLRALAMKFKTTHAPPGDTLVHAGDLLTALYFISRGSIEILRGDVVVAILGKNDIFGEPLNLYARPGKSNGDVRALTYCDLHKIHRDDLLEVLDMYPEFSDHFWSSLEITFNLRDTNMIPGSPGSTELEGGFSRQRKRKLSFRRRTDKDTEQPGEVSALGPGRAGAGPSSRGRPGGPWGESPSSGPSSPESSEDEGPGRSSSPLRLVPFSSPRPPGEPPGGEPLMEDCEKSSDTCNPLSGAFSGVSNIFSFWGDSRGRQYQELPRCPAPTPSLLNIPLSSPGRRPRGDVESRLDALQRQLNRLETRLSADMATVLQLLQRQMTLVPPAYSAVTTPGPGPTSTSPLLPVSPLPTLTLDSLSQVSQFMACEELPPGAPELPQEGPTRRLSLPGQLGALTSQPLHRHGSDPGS

Bounds are passed on as bounds.
Further: assay procedure not described here.

Sequence of Sodium-dependent dopamine transporter (Q01959 whole entry): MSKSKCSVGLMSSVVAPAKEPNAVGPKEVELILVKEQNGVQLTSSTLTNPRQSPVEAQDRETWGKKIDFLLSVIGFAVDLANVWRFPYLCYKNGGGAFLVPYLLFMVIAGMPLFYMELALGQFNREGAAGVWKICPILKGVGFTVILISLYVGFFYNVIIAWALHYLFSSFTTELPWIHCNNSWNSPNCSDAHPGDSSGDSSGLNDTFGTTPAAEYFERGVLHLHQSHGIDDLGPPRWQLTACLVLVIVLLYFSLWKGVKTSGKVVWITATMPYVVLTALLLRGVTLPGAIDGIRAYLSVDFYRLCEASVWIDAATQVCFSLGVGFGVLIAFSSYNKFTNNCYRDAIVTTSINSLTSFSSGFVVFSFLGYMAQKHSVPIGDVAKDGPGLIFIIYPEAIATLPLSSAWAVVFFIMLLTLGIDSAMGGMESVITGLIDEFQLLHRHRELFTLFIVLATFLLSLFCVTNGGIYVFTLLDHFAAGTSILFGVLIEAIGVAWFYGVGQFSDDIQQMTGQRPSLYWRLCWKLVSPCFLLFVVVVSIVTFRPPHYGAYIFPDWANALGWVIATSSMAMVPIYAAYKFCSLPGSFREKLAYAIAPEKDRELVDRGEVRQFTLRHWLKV

On to `OC(c1ccccc1)(c1ccccc1)C12CC[N+](CCOCc3ccccc3)(CC1)CC2`, for which the AC50 (as a rule, the concentration at which the activity in the assay is half-maximal) in test [1] is greater than 30 µM; in test [2], greater than 30 µM; in [3], greater than 30 µM; in test [4], 0.0044 µM; on D(3) dopamine receptor it was greater than 30 µM; at Prothrombin it was greater than 30 µM. In addition, the figures for the AC50 (in [5]; in test [6]; at Thromboxane A2 receptor) were 15.6 µM, 0.898 µM and greater than 30 µM, respectively.

As to `N=C1CCCN1Cc1[nH]c(=O)[nH]c(=O)c1Cl`, the AC50 (in test [1]; in test [2]; in test [3]; in [4]; on Prothrombin; in test [7]) was greater than 30 µM throughout. For the same compound, the AC50 (in test [5]; in test [6]; at Thromboxane A2 receptor) was greater than 30 µM throughout.

`C[S+](CC[C@H](N)C(=O)[O-])C[C@H]1O[C@@H](n2cnc3c(N)ncnc32)[C@H](O)[C@@H]1O` (stereo partly drawn) [ADEMETIONINE]: the half-maximal activity concentration (AC50) (in test [1]; in test [2]; in test [3]; in [4]; at D(3) dopamine receptor; on Prothrombin) was greater than 30 µM in each case. The AC50 (in test [5]; in [6]; on Thromboxane A2 receptor) was greater than 30 µM each time.

In the case of `NC(=O)C[C@H](N)C(=O)O` [ASPARAGINE], the AC50 (in [1]; in test [2]; in [3]; in [4]; at D(3) dopamine receptor; at Prothrombin) was greater than 30 µM throughout. Further, the AC50 (in [5]; in test [6]; on Thromboxane A2 receptor) was greater than 30 µM in each case.

`CC1=C(/C=C/C(C)=C/C=C/C(C)=C/C=C/C=C(C)/C=C/C=C(C)/C=C/C2=C(C)CCCC2(C)C)C(C)(C)CCC1` [BETA CAROTENE]: the AC50 in [1] is greater than 30 µM; in test [2], greater than 30 µM; in test [3] it was greater than 30 µM; in test [4], greater than 30 µM; on D(3) dopamine receptor, 20.8 µM; on Prothrombin, greater than 30 µM. Also, the AC50 (in test [5]; in [6]; at Thromboxane A2 receptor) was greater than 30 µM throughout.

With `C=CCN1C[C@H](C(=O)N(CCCN(C)C)C(=O)NCC)C[C@@H]2c3cccc4[nH]cc(c34)C[C@H]21` [CABERGOLINE], the AC50 in test [3] is greater than 30 µM; in [4] it was greater than 30 µM; at D(3) dopamine receptor, 0.003 µM; at Prothrombin, greater than 30 µM; in [7], 7.68 µM; in test [5], greater than 30 µM. Also, the AC50 in test [6] is 4.64 µM; on Thromboxane A2 receptor, greater than 30 µM.

Regarding `CC(C)C[C@H]1C(=O)N2CCC[C@H]2[C@]2(O)O[C@](NC(=O)[C@@H]3C[C@@H]4c5cccc6[nH]cc(c56)C[C@H]4N(C)C3)(C(C)C)C(=O)N12` [DIHYDROERGOCRYPTINE], the AC50 in test [2] is 0.847 µM; in [3] it was greater than 30 µM; in test [4], greater than 30 µM; at D(3) dopamine receptor, 0.202 µM; at Prothrombin, greater than 30 µM; in [7], greater than 30 µM. The AC50 (in test [5]; in test [6]; at Thromboxane A2 receptor) was greater than 30 µM throughout.

On to `COc1ccc(C(=O)Nc2ccccc2CCC2CCCCN2C)cc1` (stereo not drawn) [ENCAINIDE], for which the AC50 (in test [1]; in test [2]; in [3]; in test [4]; at D(3) dopamine receptor; at Prothrombin) was greater than 30 µM in each case. In addition, the AC50 (in test [5]; in [6]; at Thromboxane A2 receptor) was greater than 30 µM in each case.

With `NC1=NCC2c3ccccc3Cc3ccccc3N12` (stereo not drawn) [EPINASTINE], the AC50 in test [1] is 2.53 µM; in test [2] it was 0.253 µM; in test [3], greater than 30 µM; in test [4], greater than 30 µM; on D(3) dopamine receptor, greater than 30 µM; on Prothrombin, greater than 30 µM. The AC50 (in test [5]; in test [6]; on Thromboxane A2 receptor) was greater than 30 µM each time.

For `COc1ccc2c(c1)N(C[C@H](C)CN(C)C)c1ccccc1S2` [LEVOMEPROMAZINE], the AC50 was greater than 30 µM in test [3]; 1.68 µM in test [4]; 0.019 µM at D(3) dopamine receptor; greater than 30 µM at Prothrombin; 11 µM in [7]; greater than 30 µM in test [5]. On Thromboxane A2 receptor, this compound displayed an AC50 greater than 30 µM.

In the case of `CCN(CC)CCc1nc(-c2ccccc2)no1` [OXOLAMINE], the AC50 (in test [1]; in [2]; in test [3]; in [4]; at Prothrombin; in [7]) was greater than 30 µM throughout. For the same compound, the AC50 (in test [5]; in test [6]; on Thromboxane A2 receptor) was greater than 30 µM in each case.

Consider `OC(CCN1CCCCC1)(c1ccccc1)c1ccccc1` [PRIDINOL], for which the AC50 in [1] is greater than 30 µM; in [2] it was greater than 30 µM; in [3], greater than 30 µM; in [4], 0.129 µM; on Prothrombin, greater than 30 µM; in [7], 8.8 µM. Further, the AC50 (in test [5]; in test [6]; at Thromboxane A2 receptor) was greater than 30 µM each time.

As for `Nc1ccc2cc3ccc(N)cc3nc2c1` [PROFLAVINE], the AC50 in test [2] was 7.27 µM; in test [3], greater than 0.3 µM; in test [4] it was 2.61 µM; at D(3) dopamine receptor, 22.9 µM; on Prothrombin it was 9.65 µM; in test [7], 5 µM. Further, the AC50 in test [5] is greater than 30 µM; in test [6], 5.16 µM; at Thromboxane A2 receptor, greater than 0.3 µM.

In the case of `CC(C)(C)NCC(O)COc1cccc2c1SCCC2` (stereo not drawn) [TERTATOLOL], the AC50 in test [1] is greater than 30 µM; in test [2], 6.6 µM; in test [3] it was greater than 30 µM; in test [4], greater than 30 µM; on Prothrombin, greater than 30 µM; in [7] it was greater than 30 µM. Further, the AC50 (in test [5]; in [6]; at Thromboxane A2 receptor) was greater than 30 µM in each case.

Source of the values: ChEMBL document CHEMBL5291721, “A preclinical secondary pharmacology resource illuminates target-adverse drug reaction associations of marketed drugs” (Nat Commun, 2023).
